Source: US20070142389A1, “PIPERIDINE DERIVATIVES” (PFIZER INC., priority 2005, published 2007)
Like-named read-outs stand apart in the source and are kept apart here.

What was measured:
[1] = tested on: capsaicin-induced mechanical allodynia in a rat; test: rat model of capsaicin-induced mechanical allodynia; assay type: in vivo; settings: sc, read-out: % Inhibition of Allodynia
Protocol: Compounds of the present invention may be assayed for their ability to alleviate capsaicin-induced mechanical allodynia in a rat (e.g., Sluka (2002) J of Neuroscience, 22(13): 5687-5693). For example, a rat model of capsaicin-induced mechanical allodynia was carried out as follows:
On day 0, male Sprague-Dawley rats (about 150 g each) in the dark cycle were placed in suspended wire-bottom cages and allowed to acclimate for 0.5 hour in a darkened, quiet room. The day 0 paw withdrawal threshold (PWT) was determined on the left hind paw by Von Frey hair assessment using the Dixon up and down method. After assessment, the plantar muscle of the right hind paw was injected with 100 μL capsaicin (0.25% (w/v) in 10% ethanol, 10% Tween 80, in sterile saline). On day 6 the PWT of the left hind paw (contralateral from injection site) was determined for each animal. Animals from the day 6 prereads with PWT ≦11.7 g were considered allodynic responders and were regrouped so that each cage had similar mean PWT values. On day 7, responders were dosed subcutaneously with 10 mg compound/kg body weight, or with vehicle alone. The vehicle was phosphate buffered saline containing 2% Cremophor® EL (BASF Corp., Florham Park, N.J.). The contralateral PWT values were determined at 1 hour after the single dose, with the investigator blinded to the dosing scheme.
For each animal, the day 6 PWT value was subtracted from the 1 hour PWT value to give a delta PWT value that represents the change in PWT due to the 1 hour drug treatment. In addition, the day 6 PWT was subtracted from the day 0 PWT to give the baseline window of allodynia present in each animal. To determine % inhibition of allodynia of each animal normalized for vehicle controls, the following formula was used: % Inhibition of Allodynia =100× [(Delta PWT(drug)—mean Delta PWT(vehicle))/(Baseline—mean Delta PWT(vehicle))].
The mean percent inhibition of allodynia values (for eight animals assayed for each compound) +/− the standard error of the mean (SEM) are shown in Table 2.

[2] = target: T1, human serotonin transporter (Homo sapiens, UniProt P31645); test: hSERT Receptor Binding ([125I]-RTI-55 displacement, HEK-293 membranes); settings: hSERT, HEK-293 cell membranes, 50 pM [125I]-RTI-55, Ki from IC50 by Cheng-Prusoff; read-out: SERT Ki
T1 construct: expressed in transfected cells; host or cells: HEK-293
T1 sequence (P31645 whole entry): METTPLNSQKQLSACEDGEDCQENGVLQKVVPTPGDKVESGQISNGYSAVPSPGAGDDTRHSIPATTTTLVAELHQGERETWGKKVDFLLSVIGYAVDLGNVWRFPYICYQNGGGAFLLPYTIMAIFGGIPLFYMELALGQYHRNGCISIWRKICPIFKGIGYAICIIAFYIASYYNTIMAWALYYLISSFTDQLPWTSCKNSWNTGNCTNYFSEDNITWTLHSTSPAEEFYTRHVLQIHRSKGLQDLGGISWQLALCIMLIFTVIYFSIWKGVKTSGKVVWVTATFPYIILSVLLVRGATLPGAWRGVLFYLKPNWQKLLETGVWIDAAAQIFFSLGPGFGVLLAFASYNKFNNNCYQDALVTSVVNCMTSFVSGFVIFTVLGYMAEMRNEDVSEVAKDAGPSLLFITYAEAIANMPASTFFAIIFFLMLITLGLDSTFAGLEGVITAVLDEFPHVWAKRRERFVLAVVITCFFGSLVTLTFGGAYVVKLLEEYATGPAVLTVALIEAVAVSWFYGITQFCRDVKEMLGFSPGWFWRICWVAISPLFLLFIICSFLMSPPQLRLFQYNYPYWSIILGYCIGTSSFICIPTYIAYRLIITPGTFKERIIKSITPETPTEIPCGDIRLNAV
Protocol: (§1) Cell pastes of HEK-293 cells transfected with a human serotonin transporter cDNA were prepared. The cell pastes were resuspended in 400 to 700 mL of Krebs-HEPES assay buffer (25 mM HEPES, 122 mM NaCl, 3 mM KCl, 1.2 mM MgSO4, 1.3 mM CaCl2, and 11 mM glucose, pH 7.4) with a Polytron homogenizer at Setting 7 for 30 seconds. Aliquots of membranes (about 2.5 mg/mL protein) were stored in liquid nitrogen until used.
Assays were set up in FlashPlates pre-coated with 0.1 % PEI in a total volume of 250 μL containing: compound of one of the Examples (10^−5M to 10^−12M), cell membanes, and 50 pM [^125l]-RTI-55 (Perkin Elmer, NEX-272; specific activity 2200 Ci/mmol). The reaction was incubated and gently agitated for 90 minutes at room temperature, and terminated by removal of assay volume. Plates were covered, and bound [^125I]-RTI-55 was determined using a Wallac Trilux Beta Plate Counter. Test compounds were run in duplicate, and specific binding was defined as the difference between binding in the presence and absence of 10 μM citalopram.
(§2) Excel and GraphPad Prism software were used for data calculation and analysis. IC50 values were converted to Ki values using the Cheng-Prusoff equation.

[3] = target: T2, human norepinephrine transporter (Homo sapiens, UniProt P23975); test: hNET Receptor Binding ([125I]-RTI-55 displacement, HEK-293 membranes); settings: hNET, HEK-293 cell membranes, 50 pM [125I]-RTI-55, Ki from IC50 by Cheng-Prusoff; read-out: NET Ki
T2 construct: expressed in transfected cells; host or cells: HEK-293
T2 sequence (P23975 whole entry): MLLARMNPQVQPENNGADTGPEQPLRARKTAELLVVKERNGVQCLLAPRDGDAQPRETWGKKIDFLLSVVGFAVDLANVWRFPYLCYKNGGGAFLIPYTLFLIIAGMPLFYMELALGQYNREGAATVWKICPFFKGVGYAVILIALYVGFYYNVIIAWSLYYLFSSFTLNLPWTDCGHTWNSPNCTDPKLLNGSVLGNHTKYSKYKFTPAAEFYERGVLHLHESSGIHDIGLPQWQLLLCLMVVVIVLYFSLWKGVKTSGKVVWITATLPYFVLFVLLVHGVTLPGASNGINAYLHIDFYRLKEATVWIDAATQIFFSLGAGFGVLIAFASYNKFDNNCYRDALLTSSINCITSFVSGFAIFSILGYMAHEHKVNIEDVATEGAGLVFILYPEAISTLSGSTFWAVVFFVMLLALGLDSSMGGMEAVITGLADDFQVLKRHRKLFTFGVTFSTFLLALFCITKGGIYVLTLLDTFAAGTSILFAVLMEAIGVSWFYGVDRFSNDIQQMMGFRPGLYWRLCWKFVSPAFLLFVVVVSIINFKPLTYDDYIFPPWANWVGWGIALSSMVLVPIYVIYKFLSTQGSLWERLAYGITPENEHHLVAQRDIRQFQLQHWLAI
Protocol: as §1, with “norepinephrine” for “serotonin”, “setting” for “Setting”, “(5” for “(about 2.5”
The binding assay was set up in Beckman deep-well polypropylene plates with a total volume of 250 μL containing: compound of one of the Examples (10^−5M to 10^−12M), cell membranes, and 50 pM [^125I]-RTI-55 (Perkin Elmer, NEX-272; specific activity 2200 Ci/mmol). The reaction was incubated by gentle agitation for 90 minutes at room temperature and was terminated by filtration through Whatman GF/C filter plates using a Brandel 96-well plate harvester. Scintillation fluid (100 μL) was added to each well, and bound [^125I]-RTI-55 was determined using a Wallac Trilux Beta Plate Counter. Test compounds were run in duplicate, and specific binding was defined as the difference between binding in the presence and absence of 10 μM desipramine.
as §2

[4] = male Sprague-Dawley rats, 10 mg/kg subcutaneously, PWT 1 hour after single dose, mean +/- SEM of eight animals, normalized for vehicle

Structure (SMILES)	Ki [2] [nM]	Ki [3] [nM]	inhibition in vivo at 10 mg/kg [1, 4] [%]	inhibition in vivo at 10 mg/kg ([1]; 1 h) [%]
COCCOc1ncccc1OC[C@@H]1CNCC[C@H]1c1ccccc1 [Example 11, (3S,4R)-2-(2-Methoxy-ethoxy)-3-(4-phenyl-piperidin-3-ylmethoxy)-pyridine]	188	4.57	77.3	
COCCCOc1ncccc1OC[C@@H]1CNCC[C@H]1c1ccccc1 [Example 14, (3S,4R)-2-(3-Methoxy-propoxy)-3-(4-phenyl-piperidin-3-ylmethoxy)-pyridine]	164	12.1	22.7	
CCCc1ncccc1OC[C@@H]1CNCC[C@H]1c1ccccc1 [Example 17, (3S,4R)-3-(4-Phenyl-piperidin-3-ylmethoxy)-2-propyl-pyridine]	21.9	13.2	2.6	
c1ccc([C@@H]2CCNC[C@H]2COc2ccnc3ccsc23)cc1 [Example 35, (3S,4R)-7-(4-Phenyl-piperidin-3-ylmethoxy)-thieno[3,2-b]pyridine]	8.4	14.6		5.5
NC(=O)c1ccc(OC[C@@H]2CNCC[C@H]2c2ccccc2)cc1 [Example 38, (3S,4R)-4-(4-Phenyl-piperidin-3-ylmethoxy)-benzamide]	174	12.1	0.2	
COc1nccnc1OC[C@@H]1CNCC[C@H]1c1ccccc1 [Example 45, (3S,4R)-2-Methoxy-3-(4-phenyl-piperidin-3-ylmethoxy)-pyrazine]	71.8	36.5		
Cc1cccc(OC[C@@H]2CNCC[C@H]2c2ccccc2)n1 [Example 46, (−)-(3S,4R)-2-Methyl-6-(4-phenyl-piperidin-3-ylmethoxy)-pyridine]	156	233		

Continued, in another order:

Ki [2] [nM]	Ki [3] [nM]	Structure (SMILES)	inhibition in vivo at 10 mg/kg [1, 4] [%]	inhibition in vivo at 10 mg/kg ([1]; 1 h) [%]
24.3	3.83	CCOc1ncccc1OC[C@H]1CNCC[C@@H]1c1ccccc1 (single isomer, unassigned) [Example 1]	82.3	
6.51	3290	CCOc1ncccc1OC[C@H]1CNCC[C@@H]1c1ccccc1 [Example 2, (3R,4S)-2-Ethoxy-3-(4-phenyl-piperidin-3-ylmethoxy)-pyridine]	1.4	
17.7	3.34	COc1ncccc1OC[C@@H]1CNCC[C@H]1c1ccccc1 [Example 7, (3S,4R)-2-Methoxy-3-(4-phenyl-piperidin-3-ylmethoxy)-pyridine]	67.3	
17.5	3.04	CCCOc1ncccc1OC[C@@H]1CNCC[C@H]1c1ccccc1 [Example 9, (3S,4R)-3-(4-Phenyl-piperidin-3-ylmethoxy)-2-propoxy-pyridine]	29.5	
40.6	4.18	CC(C)Oc1ncccc1OC[C@@H]1CNCC[C@H]1c1ccccc1 [Example 12, (3S,4R)-2-lsopropoxy-3-(4-phenyl-piperidin-3-ylmethoxy)-pyridine]	66.4	
158	33.3	COc1cccnc1OC[C@@H]1CNCC[C@H]1c1ccccc1 [Example 44, (3S,4R)-3-Methoxy-2-(4-phenyl-piperidin-3-ylmethoxy)-pyridine]		
